Laboratory results reported in PubChem BioAssay AID1963429 (Molecular Pharmacology Branch, DTP, NCI, 2024).
Values joined by “and” are separate entries in the source; they are usually repeats but may differ in a detail not shown here. Equal values may be shown once.

System: 126254-015-R-J1-PDC complex spheroid growth, % test/control
Experiment: Anticancer human tumor 126254-015-R-J1-PDC patient-derived soft tissue sarcoma cell line growth inhibition [Asc]
Settings: for viability, T/C: stronger effect = lower value
Description: Multicellular complex tumor spheroid response to apoptosis pathway targeting inhibitors Alrizomadlin, Pelcitoclax, and Dasminapant in combination with a variety of drugs and investigational agents in selected tumor cell lines
The MDM2 inhibitor alrizomadlin, the Bcl-2/Bcl-xL inhibitor pelcitoclax, and the IAPs inhibitor dasminapant were evaluated both individually and in combination with standard of care and investigational anticancer small molecules within a complex spheroid model of solid tumors. . Complex spheroids include a stromal component modeled by human endothelial cells (HUVEC) and fibroblasts modeled by human mesenchymal stem cells (MSCs). The concentration ranges selected for each drug and investigational agent were based upon clinically achievable concentrations if the clinical Cmax of the agent was known.
Compounds. The drugs and investigational agents: alrizomadlin (APG-115; NSC831270), pelcitoclax (APG-1252; NSC835773), dasminapant (APG-1387;NSC834197), TAK-243 (NSC785004), copanlisib (NSC809693), olaparib (NSC753686), talazoparib (NSC767125), cobimetinib (NSC 768068), eltanexor (KPT-8602, NSC 794443), abemaciclib (NSC 768073), sotorasib (NSC818433), adagrasib (NSC 831453), MRTX-1133 (NSC 836407), Iadademestat (ORY1001, NSC 806812), and RMC-4630 (NSC839698), were obtained from the NCI Developmental Therapeutics Program Chemical Repository. The FDA-approved anticancer drug set is available from the Developmental Therapeutics Program at https://dtp.cancer.gov/organization/dscb/obtaining/available plates.htm. […] The stock solutions were prepared in dimethyl sulfoxide (DMSO, Sigma-Aldrich, St. Louis, MO, cat. D2650) at 800-fold the tested concentration and stored at -70 degrees C prior to their use. All drugs and investigational agents were tested over a range starting from a high concentration at or near the clinical Cmax and decreasing in half-log increments. If the clinical Cmax for an agent had not been determined, the highest concentration tested was 10 microM.
The patient-derived cancer (PDC) cell lines include five colon adenocarcinomas: 186277-243-T-J2-PDC, 616215-338-R-J1-PDC, 439559-082-T-J2-PDC, 463943-066-T-J2-PDC, and 519858-162-T-J1-PDC; three pancreatic carcinomas: 323965-272-R-J2-PDC, 521955-158-R6-J3-PDC, and 521955-158-R2-J5-PDC; two uterine sarcomas: 327498-152-R-J2-PDC and 993429-296-R-J1-PDC; two rhabdomyosarcomas: 755483-174-R-J1-PDC and 772245-204-R-J1-PDC; two soft tissue sarcomas: 126254-015-R-J1-PDC and 494315-158-R-J1-PDC; two malignant fibrous histiocytomas: 317291-083-R-J1-PDC and 596521-263-R-J1-PDC; two breast carcinomas: 171881-019-R-J1-PDC and 885512-296-R-J2-PDC; and one ovarian carcinoma: 6556581-035-R-J-PDC were obtained from the NCI PDMR, (https://pdmr.cancer.gov). The established cell lines HSSY-2 synovial sarcoma (RRID:CVCL 8719), SYO-1 synovial sarcoma (RRID:CVCL_7146), MPNST malignant peripheral neural sheath tumor were obtained from the Sloan Kettering Institute. The following established cell lines were purchased from the American Type Culture Collection (ATCC, Manassas, VA), Sor the received from the NCI repository:, PANC-1 pancreatic carcinoma (CRL-1469, RRID:CVCL_0480), OVCAR-5 ovarian carcinoma (RRID:CVCL_1628), OVCAR-8 ovarian carcinoma (RRID:CVCL_1629), , MCF-7 breast carcinoma (CRL-12584, RRID:CVCL_0031), MDA-MB-231 breast carcinoma (CRL-12532, RRID:CVCL_0062), NCI-H1876 small cell lung carcinoma (CRL-5902, RRID:CVCL_1503), NCI-H510A small cell lung carcinoma (HTB-184, RRID:CVCL_1565), NCI-H1417 (CRL-5869, RRID:CVCL_1469), and NCI-H196 small cell lung carcinoma (CRL-5823, RRID:CVCL_1509). Dr. Peter Houghton (Greehey Children's Cancer Research Institute, University of Texas Health Science Center, San Antonio, TX) provided Rh-18 rhabdomyosarcoma (RRID:CVCL_1659). Pooled donor human umbilical vein endothelial cells (HUVEC, Lonza, cat. CC-2519) and human mesenchymal stem cells (hMSC, Lonza, cat. PT-2501) were purchased from Lonza (Walkersville, MD).
Cell Culture. […]
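Note: spheroids exposed to compound for seven days.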
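Throughout, for viability, T/C: 100% = DMSO vehicle control wells.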

SMILES: NC1CCC(NC2CC2c2ccccc2)CC1 (configuration not stated) + Cc1c(S(C)(=O)=O)c(-c2cc(F)cc(N3CCN(c4ccc(NS(=O)(=O)c5ccc(NC(CCN6CCC(C(=O)OCCCP(=O)(O)O)CC6)CSc6ccccc6)c(S(=O)(=O)C(F)(F)F)c5)cc4)CC3)c2)c(-c2ccc(Cl)cc2)n1C(C)C
- IC50 (curve of first compound, second compound 0.1 µM): > 100 nM
- IC50 (curve of first compound, second compound 0.316 µM): > 100 nM
- IC50 (curve of first compound, second compound 1 µM): > 100 nM
- IC50 (curve of first compound, second compound 3.16 µM): > 100 nM
- IC50 (curve of first compound, second compound 10 µM): > 100 nM
- viability, T/C (second compound 0.1 µM, first compound 0.000316 µM): 94.6%
- viability, T/C (second compound 0.1 µM, first compound 0.001 µM): 88.8%
- viability, T/C (second compound 0.1 µM, first compound 0.00316 µM): 76.7%
- viability, T/C (second compound 0.1 µM, first compound 0.01 µM): 75.4%
- viability, T/C (second compound 0.1 µM, first compound 0.0316 µM): 84%
- viability, T/C (second compound 0.1 µM, first compound 0.1 µM): 77.6%
- viability, T/C (second compound 0.316 µM, first compound 0.000316 µM): 74.4%
- viability, T/C (second compound 0.316 µM, first compound 0.001 µM): 76.5%
- viability, T/C (second compound 0.316 µM, first compound 0.00316 µM): 75.3%
- viability, T/C (second compound 0.316 µM, first compound 0.01 µM): 70.1%
- viability, T/C (second compound 0.316 µM, first compound 0.0316 µM): 66.5%
- viability, T/C (second compound 0.316 µM, first compound 0.1 µM): 76.1%
- viability, T/C (second compound 1 µM, first compound 0.000316 µM): 79%
- viability, T/C (second compound 1 µM, first compound 0.001 µM): 81.2%
- viability, T/C (second compound 1 µM, first compound 0.00316 µM): 73.1%
- viability, T/C (second compound 1 µM, first compound 0.01 µM): 71.4%
- viability, T/C (second compound 1 µM, first compound 0.0316 µM): 73.8%
- viability, T/C (second compound 1 µM, first compound 0.1 µM): 60.3%
- viability, T/C (second compound 3.16 µM, first compound 0.000316 µM): 81.5%
- viability, T/C (second compound 3.16 µM, first compound 0.001 µM): 73.1%
- viability, T/C (second compound 3.16 µM, first compound 0.00316 µM): 73.9%
- viability, T/C (second compound 3.16 µM, first compound 0.01 µM): 71.2%
- viability, T/C (second compound 3.16 µM, first compound 0.0316 µM): 62.3%
- viability, T/C (second compound 3.16 µM, first compound 0.1 µM): 65%
- viability, T/C (second compound 10 µM, first compound 0.000316 µM): 69.6%
- viability, T/C (second compound 10 µM, first compound 0.001 µM): 69.1%
- viability, T/C (second compound 10 µM, first compound 0.00316 µM): 70.4%
- viability, T/C (second compound 10 µM, first compound 0.01 µM): 71.3%
- viability, T/C (second compound 10 µM, first compound 0.0316 µM): 61.1%
- viability, T/C (second compound 10 µM, first compound 0.1 µM): 58.2%

SMILES: NC(=O)C(=Cn1cnc(-c2cc(C(F)(F)F)cc(C(F)(F)F)c2)n1)c1cncnc1
- viability, T/C (compound 0.000949 µM): 104% and 107% and 110%
- viability, T/C (compound 0.003 µM): 92.3% and 94% and 104%
- viability, T/C (compound 0.00949 µM): 86.1% and 82.2% and 93.2%
- viability, T/C (compound 0.03 µM): 63.4% and 58.5% and 84.6%
- viability, T/C (compound 0.0949 µM): 33.2% and 34.4% and 57.5%
- viability, T/C (compound 0.3 µM): 13.9% and 15.5% and 19.8%
- IC50 (curve of compound): 49.9 nM and 45.6 nM and 121 nM

SMILES: COc1c(OCCCN2CCOCC2)ccc2c3n(c(=NC(=O)c4cnc(N)nc4)nc12)CCN3 + CCN1C(C(=O)NC23CCC(C(=O)O)(CC2)CC3)C(c2cccc(Cl)c2F)C2(C(=O)Nc3cc(Cl)ccc32)C12CCCCC2
- IC50 (curve of first compound, second compound 0.03 µM): 44.2 nM
- IC50 (curve of first compound, second compound 0.0949 µM): 38.6 nM
- IC50 (curve of first compound, second compound 0.3 µM): 37.4 nM
- IC50 (curve of first compound, second compound 0.949 µM): 49.1 nM
- IC50 (curve of first compound, second compound 3 µM): 51 nM
- viability, T/C (second compound 0.03 µM, first compound 0.00316 µM): 93.9%
- viability, T/C (second compound 0.03 µM, first compound 0.01 µM): 91.4%
- viability, T/C (second compound 0.03 µM, first compound 0.0316 µM): 56.9%
- viability, T/C (second compound 0.03 µM, first compound 0.1 µM): 28.8%
- viability, T/C (second compound 0.03 µM, first compound 0.316 µM): 17.4%
- viability, T/C (second compound 0.03 µM, first compound 1 µM): 11.1%
- viability, T/C (second compound 0.0949 µM, first compound 0.00316 µM): 87.3%
- viability, T/C (second compound 0.0949 µM, first compound 0.01 µM): 73.5%
- viability, T/C (second compound 0.0949 µM, first compound 0.0316 µM): 57.5%
- viability, T/C (second compound 0.0949 µM, first compound 0.1 µM): 25.8%
- viability, T/C (second compound 0.0949 µM, first compound 0.316 µM): 16.1%
- viability, T/C (second compound 0.0949 µM, first compound 1 µM): 9.86%
- viability, T/C (second compound 0.3 µM, first compound 0.00316 µM): 89.3%
- viability, T/C (second compound 0.3 µM, first compound 0.01 µM): 72.3%
- viability, T/C (second compound 0.3 µM, first compound 0.0316 µM): 57.2%
- viability, T/C (second compound 0.3 µM, first compound 0.1 µM): 26.9%
- viability, T/C (second compound 0.3 µM, first compound 0.316 µM): 16.3%
- viability, T/C (second compound 0.3 µM, first compound 1 µM): 10.5%
- viability, T/C (second compound 0.949 µM, first compound 0.00316 µM): 93.6%
- viability, T/C (second compound 0.949 µM, first compound 0.01 µM): 86.5%
- viability, T/C (second compound 0.949 µM, first compound 0.0316 µM): 61.8%
- viability, T/C (second compound 0.949 µM, first compound 0.1 µM): 30.3%
- viability, T/C (second compound 0.949 µM, first compound 0.316 µM): 15.6%
- viability, T/C (second compound 0.949 µM, first compound 1 µM): 10.4%
- viability, T/C (second compound 3 µM, first compound 0.00316 µM): 87.2%
- viability, T/C (second compound 3 µM, first compound 0.01 µM): 85.3%
- viability, T/C (second compound 3 µM, first compound 0.0316 µM): 62.6%
- viability, T/C (second compound 3 µM, first compound 0.1 µM): 31.2%
- viability, T/C (second compound 3 µM, first compound 0.316 µM): 16.4%
- viability, T/C (second compound 3 µM, first compound 1 µM): 10.9%
